These results are taken from patent US8039454B2, “Macrolide compounds with antibiotic and antineoplastic properties” (Weihe Pharmaceuticals Co. Ltd., priority 2006, dated 2011).

≈ marks a conversion by molar mass, not a printed value.

Common to all, as to experiment: MIC by standard dilution method in Tryptic Soy Broth
Common to all, as to format: cell-based

For one assay, the system named is Enterococcus faecalis. The settings on record: 35° C., 24 h incubation. The protocol: (§1) To determine minimum inhibitory concentration (MIC) of the WBI-3001, the standard dilution method was used. The tests were conducted at 35° C. and the MICs were determined after 24 h incubation.
In a further assay the test system is Escherichia coli. Conditions: 35° C., 24 h incubation. On the procedure: as §1
Another assay concerns Pseudomonas aeruginosa. Conditions: 35° C., 24 h incubation. On the procedure:
as §1

The test system of assay [1] is S. aureus MSRA (clinical isolates of methicillin-resistant strain). The settings on record: Staphylococcus aureus, 24 h. On the procedure:
as §1

For assay [2], the system named is Staphylococcus epidermidis. The settings on record: 35° C., 24 h incubation. On the procedure:
as §1

In another assay the test system is Streptococcus pyogenes. Conditions: 35° C., 24 h incubation. The protocol: as §1

Turning to `CC[C@H]1OC(=O)[C@H](C)[C@@H](O[C@H]2C[C@@](C)(OC)[C@@H](O)[C@H](C)O2)[C@H](C)[C@@H](O[C@@H]2O[C@H](C)C[C@H](N(C)C)[C@H]2O)[C@](C)(O)C[C@@H](C)C(=O)[C@H](C)[C@@H](O)[C@]1(C)O` [Erythromycin], the MIC (as a rule, the lowest concentration found to suppress growth) with Enterococcus faecalis was above 32 µg/mL; in the assay with Escherichia coli it was 1 µg/mL (≈ 1.36 µM); against Pseudomonas aeruginosa it was above 32 µg/mL; in assay [1] it was above 32 µg/mL; in assay [2] it was 0.25 µg/mL (≈ 0.341 µM); against Streptococcus pyogenes it was 0.03 µg/mL (≈ 0.0409 µM).
